The values below come from patent publication US20230405134A1, “NOVEL PROTAC CHIMERIC COMPOUND, AND PHARMACEUTICAL COMPOSITION COMPRISING SAME FOR PREVENTING, AMELIORATING, OR TREATING DISEASES THROUGH TARGET PROTEIN DEGRADATION” (POSTECH RESEARCH AND BUSINESS DEVELOPMENT FOUNDATION, priority 2020, published 2023).

For one experiment, the target named is T1, PAS-B domain of SRC-1 (Homo sapiens, UniProt Q15788).
T1 construct: PAS-B domain of human SRC-1 (residues 257-385) tagged with His6; His6 (cleaved yes); made in house; host or cells: E. coli BL21 (DE3) pLysS
T1 sequence (Q15788 257-385): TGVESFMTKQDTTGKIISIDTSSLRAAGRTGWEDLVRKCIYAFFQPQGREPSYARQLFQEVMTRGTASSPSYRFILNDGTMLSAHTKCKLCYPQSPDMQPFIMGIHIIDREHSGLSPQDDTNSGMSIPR
The experiment is described as follows: Competitive fluorescence polarization (FP) assay against fluorescently labeled STAT-6 peptide. The format is binding. Particulars: STAT-6 peptide 100 nM, PAS-B domain 5 μM. The protocol: (§1) An expression plasmid of the PAS-B domain of human SRC-1 (residues 257-385) tagged with His6 was provided by Professor John. A. Robinson. (ChemBioChem 2008, 9, 1318-1322). The plasmid was transformed into BL21 (DE3) pLysS cells, and the protein was cultured in Luria-Bertani broth medium and induced with 0.5 mM IPTG at 18° C. for 16 hours. Cell disruption was performed by ultrasonic treatment in a buffer (50 mM Tris-HCl pH 8.0, 200 mM NaCl and 1 mM TCEP), and insoluble materials were removed by centrifugation. HisTrap™ column (GE Healthcare, 17-5255-01) chromatography was performed on the buffer and 500 mM of imidazole was applied for elution. In order to remove the His6-tag, TEV protease was used and the cleaved samples were loaded in HisTrap™ as described above. […]
A competitive fluorescence polarization (FP) assay was performed to evaluate the binding affinity of ND1-YL2 to the target protein. […] After further incubation for 1 hour, the polarization of fluorescence was measured by a Tecan F200 microplate reader (excitation wavelength: 485 nm; emission wavelength: 535 nm). IC50 values were determined using non-linear regression and fitted with GraphPad Prism® 4 software using the following equation: Y=Bottom+(Top-Bottom)/(1+10^X-LogIC50) (FIG. 11A). […] The binding affinity was calculated as described above (FIG. 11B).
For orientation: Fluorescence polarisation rises when a labelled molecule tumbles more slowly, as on binding a larger partner.

The target of the next experiment is T2, SRC-1/ND1-YL2/UBR box (UniProt P19812+Q15788).
T2 construct: PAS-B domain of human SRC-1 (residues 257-385) tagged with His6; UBR box (residues 113-194) in the UBR1 E3 ubiquitin ligase of S. cerevisiae; His6 (cleaved yes); made in house; host or cells: E. coli BL21 (DE3) pLysS (SRC-1 PAS-B)
T2 sequence (Q15788 257-385): T1 sequence (Q15788 257-385)
T2 sequence (P19812 113-194): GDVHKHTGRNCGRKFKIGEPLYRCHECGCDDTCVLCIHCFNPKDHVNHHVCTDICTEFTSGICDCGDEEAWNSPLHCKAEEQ
Briefly: SEC-MALS ternary complex formation. The format is binding. The note with it: SRC-1 alone 20 kDa, UBR box alone 12 kDa. As for the experimental part:
as §1, with “above. The SRC-1 was further purified by size exclusion chromatography (HiLoad™ 16/600 Superdex 75 pg) in a final buffer of 20 mM Tris-HCl pH 7.5, 150 mM NaCl and 1 mM TCEP.” for “above.”
The next step was to confirm whether ND1-YL2 could indeed form a ternary complex. […] Light scattering and differential refractive index data were collected and analyzed using ASTRA®V software (Wyatt Technology) (FIG. 12A). The individual molecules SRC-1 and UBR box had molecular masses of 20 and 12 kDa, respectively, and were detected to be 40 kDa in the presence of ND1-YL2, which is a result showing that a ternary complex was formed (FIG. 12A).
A general note: In gel filtration, larger molecules generally elute earlier.

The next experiment deals with E-cadherin. Briefly: E-cadherin mRNA level by RT-qPCR in MDA-MB-231 cells. It is filed as cell-based, human. Particulars: 12 hours. From the text:
The pharmacological effects on SRC-1 dependent signal transmission were explored using the previously discovered SRC-1 degrading substance. The SRC-1 is overexpressed in various cancers and plays a pivotal role in increasing cell migration and invasion by regulating the expression of related genes. Therefore, when treated with ND1-YL2, an SRC-1 degrading substance, the expression of genes stimulated by SRC-1, such as colony stimulating factor-1 (CSF-1), a gene encoding the cytokine CSF-1 that induces cell differentiation and migration, will be suppressed. To confirm this, MDA-MB-231 cells were treated with DMSO and various concentrations of ND1-YL2, YL2 or N-degron tetrapeptide for 12 hours, and the mRNA level of CSF-1 was normalized to 18S level. Confirmation was made using quantitative real-time polymerase chain reaction (RT-qPCR). MDA-MB-231 cells were seeded at 2×10^5 cells per well. After 24 hours, compounds (YL2, RLAA or ND1-YL2) were treated in Opti-MEM medium for 12 hours. Subsequently, general mRNA isolation was performed using TRI reagent (Takara), and total mRNA was isolated from the cells. The absorbance of total mRNA was measured with a Tecan F200 Nanophotometer, and reverse transcription was performed using AccuPower RocketScript Cycle RT PreMix (Bioneer). Quantitative real-time PCR for CSF-1, E-Cadherin and 18S was performed using a StepOnePlus Real-Time PCR System and SYBR Green mix (Applied Biosystems) according to the manufacturer's manual.
In addition, the effect of the ND1-YL2 on the expression of E-cadherin, a tumor suppressor gene that plays an important role in cell-cell adhesion, was tested. Since SRC-1 protein is known to suppress the E-cadherin expression, the ND1-YL2 will upregulate the E-cadherin by degrading SRC-1.
In general terms: Real-time PCR tracks product formation cycle by cycle.

Structures are written as SMILES. Where a SMILES comes first, the peptide text is derived from it. Bridges are numbered along the chain shown (N, C = ends). [ ]: non-standard residue; d: D form. Cha = N[C@@H](CC1CCCCC1)C(=O)O; S5 = C=CCCC[C@](C)(N)C(=O)O

The Ki is a measure of affinity in units of concentration, obtained from inhibition or displacement. A low value points to a stronger hold on the target.

`CC(C)C[C@H](NC(=O)[C@H](C)NC(=O)[C@H](C)NC(=O)[C@H](C)NC(=O)[C@H](C)NC(=O)[C@H](CC(C)C)NC(=O)[C@@H](N)CCCNC(=N)N)C(=O)N[C@@H](CC(C)C)C(=O)N1CCC[C@H]1C(=O)N1CCC[C@H]1C(=O)N[C@H](C(=O)N[C@@H](CCC(=O)O)C(=O)N[C@@H](CCC(N)=O)C(=O)N[C@@H](CC(=O)O)C(=O)N[C@@H](CC(C)C)C(=O)N[C@@]1(C)CCC/C=C\CCC[C@@](C)(C(=O)N[C@@H](Cc2ccc(O)cc2)C(N)=O)NC(=O)[C@H](CC2CCCCC2)NC(=O)[C@H](CC(C)C)NC(=O)[C@H](CCCCN)NC1=O)[C@@H](C)O` [ND1-YL2] (H-RLAAAALLPPTEQDL[S5]KL[Cha][S5]Y-NH2; staple (Z) 16-20) returned a Ki at PAS-B domain of SRC-1 of 320 nM. In addition, the “Molecular mass detected for SRC-1 and UBR box in the presence of compound” value on SRC-1/ND1-YL2/UBR box was determined as 40 kDa. For the same compound, the “Effect on E-cadherin expression (mRNA)” value in the experiment on E-cadherin is on record as “dose-dependent increase”.
